{"source": "paper PMC9090415", "about": "“Discovery of small molecule inhibitors of Plasmodium falciparum apicoplast DNA polymerase” (Journal of Enzyme Inhibition and Medicinal Chemistry, 2022)", "target": "P. falciparum apicoplast DNA polymerase (Pf-apPOL) (Plasmodium falciparum, UniProt Q8ILY1)", "sequence (Q8ILY1 entry or part of it)": "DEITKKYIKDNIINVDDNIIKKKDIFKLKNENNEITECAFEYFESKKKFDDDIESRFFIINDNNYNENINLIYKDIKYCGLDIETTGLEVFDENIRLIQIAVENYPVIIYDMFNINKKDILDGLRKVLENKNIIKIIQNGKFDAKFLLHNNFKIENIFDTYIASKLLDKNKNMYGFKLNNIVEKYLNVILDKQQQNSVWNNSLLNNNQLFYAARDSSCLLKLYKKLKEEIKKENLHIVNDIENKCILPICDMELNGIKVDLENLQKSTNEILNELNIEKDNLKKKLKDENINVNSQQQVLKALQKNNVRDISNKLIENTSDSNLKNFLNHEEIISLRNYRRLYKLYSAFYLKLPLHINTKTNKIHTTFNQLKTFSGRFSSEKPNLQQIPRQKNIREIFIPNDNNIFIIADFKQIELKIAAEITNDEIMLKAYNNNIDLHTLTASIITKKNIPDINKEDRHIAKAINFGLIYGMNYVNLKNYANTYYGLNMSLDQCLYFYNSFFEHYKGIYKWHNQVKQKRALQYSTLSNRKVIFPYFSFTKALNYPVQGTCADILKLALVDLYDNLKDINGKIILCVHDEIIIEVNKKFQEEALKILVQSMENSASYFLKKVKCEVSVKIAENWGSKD", "assay": "Fluorescence-based high-throughput DNA polymerase assay (molecular beacon), primary screen and dose-response;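 for % inhibition ApPOL 90': test concentration in µM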;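 for % inhibition apPOL 180': test concentration in µM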", "format": "biochemical", "procedure,_shortened": "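Single-point screening used 10 µM compound with 20 nM polymerase, 20 nM hairpin substrate and 6 µM dNTPs for 90 min at 25 °C. Confirmatory titrations (2.5–80 µM) followed fluorescence at three times, and IC50 was derived from a fit including a cooperativity term n.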", "data": [{"smiles": "COC(=O)c1sc(-c2ccc(C(C)(C)C)cc2)cc1NC(=O)CCC(=O)O", "note": "[Molecule 87, COC(=O)c1sc(cc1NC(=O)CCC(=O)O)c1ccc(cc1)C(C)(C)C]", "values": [{"measurement": "DNA Pol", "setting": "'DNA Pol' of the 186 hits list (screen value); 90 min, 10 µM", "value": 96}, {"measurement": "% inhibition Apo pol 10'", "setting": "DRC-1; 10'; conc 2.5", "value": 19.7971, "unit": "%"}, {"measurement": "% inhibition Apo pol 10'", "setting": "DRC-1; 10'; conc 5", "value": 30.0237, "unit": "%"}, {"measurement": "% inhibition Apo pol 10'", "setting": "DRC-1; 10'; conc 10", "value": 55.209, "unit": "%"}, {"measurement": "% inhibition Apo pol 10'", "setting": "DRC-1; 10'; conc 20", "value": 85.0828, "unit": "%"}, {"measurement": "% inhibition Apo pol 10'", "setting": "DRC-1; 10'; conc 40", "value": 94.7696, "unit": "%"}, {"measurement": "% inhibition Apo pol 10'", "setting": "DRC-1; 10'; conc 80", "value": 96.2943, "unit": "%"}, {"measurement": "% inhibition Apol 90'", "setting": "DRC-1; 90'; conc 2.5", "value": 13.7781, "unit": "%"}, {"measurement": "% inhibition Apol 90'", "setting": "DRC-1; 90'; conc 5", "value": 20.5036, "unit": "%"}, {"measurement": "% inhibition Apol 90'", "setting": "DRC-1; 90'; conc 10", "value": 48.04, "unit": "%"}, {"measurement": "% inhibition Apol 90'", "setting": "DRC-1; 90'; conc 20", "value": 81.7697, "unit": "%"}, {"measurement": "% inhibition Apol 90'", "setting": "DRC-1; 90'; conc 40", "value": 91.7617, "unit": "%"}, {"measurement": "% inhibition Apol 90'", "setting": "DRC-1; 90'; conc 80", "value": 95.9877, "unit": "%"}, {"measurement": "% inhibition apPOL 180'", "setting": "DRC-1; 180'; conc 2.5", "value": 10.0944, "unit": "%"}, {"measurement": "% inhibition apPOL 180'", "setting": "DRC-1; 180'; conc 5", "value": 11.9548, "unit": "%"}, {"measurement": "% inhibition apPOL 180'", "setting": "DRC-1; 180'; conc 10", "value": 36.7594, "unit": "%"}, {"measurement": "% inhibition apPOL 180'", "setting": "DRC-1; 180'; conc 20", "value": 75.8676, "unit": "%"}, {"measurement": "% inhibition apPOL 180'", "setting": "DRC-1; 180'; conc 40", "value": 89.861, "unit": "%"}, {"measurement": "% inhibition apPOL 180'", "setting": "DRC-1; 180'; conc 80", "value": 95.0797, "unit": "%"}, {"measurement": "% inhibition Apo pol 5'", "setting": "DRC-2; 5'; conc 2.5", "value": 12, "unit": "%"}, {"measurement": "% inhibition Apo pol 5'", "setting": "DRC-2; 5'; conc 5", "value": 9, "unit": "%"}, {"measurement": "% inhibition Apo pol 5'", "setting": "DRC-2; 5'; conc 10", "value": 35, "unit": "%"}, {"measurement": "% inhibition Apo pol 5'", "setting": "DRC-2; 5'; conc 20", "value": 50, "unit": "%"}, {"measurement": "% inhibition Apo pol 5'", "setting": "DRC-2; 5'; conc 40", "value": 60, "unit": "%"}, {"measurement": "% inhibition Apo pol 5'", "setting": "DRC-2; 5'; conc 80", "value": 59, "unit": "%"}, {"measurement": "% inhibition Apo pol 5'", "setting": "DRC-2; 5'; concentration 5", "value": 9, "unit": "%"}, {"measurement": "% inhibition Apol 40'", "setting": "DRC-2; 40'; conc 2.5", "value": 11, "unit": "%"}, {"measurement": "% inhibition Apol 40'", "setting": "DRC-2; 40'; conc 5", "value": 9, "unit": "%"}, {"measurement": "% inhibition Apol 40'", "setting": "DRC-2; 40'; conc 10", "value": 40, "unit": "%"}, {"measurement": "% inhibition Apol 40'", "setting": "DRC-2; 40'; conc 20", "value": 61, "unit": "%"}, {"measurement": "% inhibition Apol 40'", "setting": "DRC-2; 40'; conc 40", "value": 72, "unit": "%"}, {"measurement": "% inhibition Apol 40'", "setting": "DRC-2; 40'; conc 80", "value": 72, "unit": "%"}, {"measurement": "% inhibition Apol 40'", "setting": "DRC-2; 40'; concentration 5", "value": 9, "unit": "%"}, {"measurement": "% inhibition Apol 40'", "setting": "DRC-2; 40'; concentration 40", "value": 72, "unit": "%"}, {"measurement": "% inhibition Apol 40'", "setting": "DRC-2; 40'; concentration 80", "value": 72, "unit": "%"}, {"measurement": "% inhibition ApPOL 90'", "setting": "DRC-2; 90'; conc 2.5", "value": 9, "unit": "%"}, {"measurement": "% inhibition ApPOL 90'", "setting": "DRC-2; 90'; conc 5", "value": 7, "unit": "%"}, {"measurement": "% inhibition ApPOL 90'", "setting": "DRC-2; 90'; conc 10", "value": 38, "unit": "%"}, {"measurement": "% inhibition ApPOL 90'", "setting": "DRC-2; 90'; conc 20", "value": 62, "unit": "%"}, {"measurement": "% inhibition ApPOL 90'", "setting": "DRC-2; 90'; conc 40", "value": 74, "unit": "%"}, {"measurement": "% inhibition ApPOL 90'", "setting": "DRC-2; 90'; conc 80", "value": 75, "unit": "%"}, {"measurement": "% inhibition ApPOL 90'", "setting": "DRC-2; 90'; concentration 2.5", "value": 9, "unit": "%"}, {"measurement": "% inhibition apPOL 180'", "setting": "DRC-2; 180'; conc 2.5", "value": 6, "unit": "%"}, {"measurement": "% inhibition apPOL 180'", "setting": "DRC-2; 180'; conc 5", "value": 4, "unit": "%"}, {"measurement": "% inhibition apPOL 180'", "setting": "DRC-2; 180'; conc 10", "value": 32, "unit": "%"}, {"measurement": "% inhibition apPOL 180'", "setting": "DRC-2; 180'; conc 20", "value": 57, "unit": "%"}, {"measurement": "% inhibition apPOL 180'", "setting": "DRC-2; 180'; conc 40", "value": 72, "unit": "%"}, {"measurement": "% inhibition apPOL 180'", "setting": "DRC-2; 180'; conc 80", "value": 73, "unit": "%"}, {"measurement": "% inhibition apPOL 180'", "setting": "DRC-2; 180'; concentration 40", "value": 72, "unit": "%"}, {"measurement": "DNA Pol", "setting": "primary screen value, \"DNA Pol\"; 90 min, 10 µM", "value": 96}]}, {"smiles": "Oc1cccnc1/N=C/c1cc(I)cc(I)c1O", "note": "[KU0073720]", "values": [{"measurement": "% inhibition Apo pol 10'", "setting": "DRC-1; concentration 2.5; 10'", "value": 24.1498, "unit": "%"}, {"measurement": "% inhibition Apol 90'", "setting": "DRC-1; concentration 2.5; 90'", "value": 12.6325, "unit": "%"}, {"measurement": "% inhibition apPOL 180'", "setting": "DRC-1; concentration 2.5; 180'", "value": 7.269, "unit": "%"}, {"measurement": "% inhibition Apo pol 10'", "setting": "DRC-1; concentration 5; 10'", "value": 35.1256, "unit": "%"}, {"measurement": "% inhibition Apol 90'", "setting": "DRC-1; concentration 5; 90'", "value": 18.9546, "unit": "%"}, {"measurement": "% inhibition apPOL 180'", "setting": "DRC-1; concentration 5; 180'", "value": 7.696, "unit": "%"}, {"measurement": "% inhibition Apo pol 10'", "setting": "DRC-1; concentration 10; 10'", "value": 54.1581, "unit": "%"}, {"measurement": "% inhibition Apol 90'", "setting": "DRC-1; concentration 10; 90'", "value": 35.5541, "unit": "%"}, {"measurement": "% inhibition apPOL 180'", "setting": "DRC-1; concentration 10; 180'", "value": 22.0989, "unit": "%"}, {"measurement": "% inhibition Apo pol 10'", "setting": "DRC-1; concentration 20; 10'", "value": 82.6757, "unit": "%"}, {"measurement": "% inhibition Apol 90'", "setting": "DRC-1; concentration 20; 90'", "value": 72.4882, "unit": "%"}, {"measurement": "% inhibition apPOL 180'", "setting": "DRC-1; concentration 20; 180'", "value": 62.032, "unit": "%"}, {"measurement": "% inhibition Apo pol 10'", "setting": "DRC-1; concentration 40; 10'", "value": 88.0061, "unit": "%"}, {"measurement": "% inhibition Apol 90'", "setting": "DRC-1; concentration 40; 90'", "value": 85.8588, "unit": "%"}, {"measurement": "% inhibition apPOL 180'", "setting": "DRC-1; concentration 40; 180'", "value": 82.0572, "unit": "%"}, {"measurement": "% inhibition Apo pol 10'", "setting": "DRC-1; concentration 80 (unit not given); 10'", "value": 86.1265, "unit": "%"}, {"measurement": "% inhibition Apol 90'", "setting": "DRC-1; concentration 80; 90'", "value": 87.3428, "unit": "%"}, {"measurement": "% inhibition apPOL 180'", "setting": "DRC-1; concentration 80; 180'", "value": 87.5745, "unit": "%"}, {"measurement": "% inhibition Apo pol 5'", "setting": "DRC-2; 5'; concentration 40", "value": 63, "unit": "%"}, {"measurement": "% inhibition Apol 40'", "setting": "DRC-2; 40'; concentration 20", "value": 63, "unit": "%"}, {"measurement": "% inhibition Apo pol 5'", "setting": "DRC-2; concentration 2.5; 5'", "value": 26, "unit": "%"}, {"measurement": "% inhibition Apol 40'", "setting": "DRC-2; concentration 2.5; 40'", "value": 24, "unit": "%"}, {"measurement": "% inhibition ApPOL 90'", "setting": "DRC-2; concentration 2.5; 90'", "value": 22, "unit": "%"}, {"measurement": "% inhibition apPOL 180'", "setting": "DRC-2; concentration 2.5; 180'", "value": 15, "unit": "%"}, {"measurement": "% inhibition Apo pol 5'", "setting": "DRC-2; concentration 5; 5'", "value": 36, "unit": "%"}, {"measurement": "% inhibition Apol 40'", "setting": "DRC-2; concentration 5; 40'", "value": 33, "unit": "%"}, {"measurement": "% inhibition ApPOL 90'", "setting": "DRC-2; concentration 5; 90'", "value": 28, "unit": "%"}, {"measurement": "% inhibition apPOL 180'", "setting": "DRC-2; concentration 5; 180'", "value": 17, "unit": "%"}, {"measurement": "% inhibition Apo pol 5'", "setting": "DRC-2; concentration 10; 5'", "value": 51, "unit": "%"}, {"measurement": "% inhibition Apol 40'", "setting": "DRC-2; concentration 10; 40'", "value": 52, "unit": "%"}, {"measurement": "% inhibition ApPOL 90'", "setting": "DRC-2; concentration 10; 90'", "value": 49, "unit": "%"}, {"measurement": "% inhibition apPOL 180'", "setting": "DRC-2; concentration 10; 180'", "value": 37, "unit": "%"}, {"measurement": "% inhibition Apo pol 5'", "setting": "DRC-2; concentration 20; 5'", "value": 57, "unit": "%"}, {"measurement": "% inhibition Apol 40'", "setting": "DRC-2; concentration 20; 40'", "value": 63, "unit": "%"}, {"measurement": "% inhibition ApPOL 90'", "setting": "DRC-2; concentration 20; 90'", "value": 62, "unit": "%"}, {"measurement": "% inhibition apPOL 180'", "setting": "DRC-2; concentration 20; 180'", "value": 54, "unit": "%"}, {"measurement": "% inhibition Apo pol 5'", "setting": "DRC-2; concentration 40; 5'", "value": 63, "unit": "%"}, {"measurement": "% inhibition Apol 40'", "setting": "DRC-2; concentration 40; 40'", "value": 73, "unit": "%"}, {"measurement": "% inhibition ApPOL 90'", "setting": "DRC-2; concentration 40; 90'", "value": 75, "unit": "%"}, {"measurement": "% inhibition apPOL 180'", "setting": "DRC-2; concentration 40; 180'", "value": 74, "unit": "%"}, {"measurement": "% inhibition Apo pol 5'", "setting": "DRC-2; concentration 80; 5'", "value": 58, "unit": "%"}, {"measurement": "% inhibition Apol 40'", "setting": "DRC-2; concentration 80; 40'", "value": 72, "unit": "%"}, {"measurement": "% inhibition ApPOL 90'", "setting": "DRC-2; concentration 80; 90'", "value": 76, "unit": "%"}, {"measurement": "% inhibition apPOL 180'", "setting": "DRC-2; concentration 80; 180'", "value": 77, "unit": "%"}, {"measurement": "DNA Pol", "setting": "primary screen value of the 186 hits; unit not given; 90 min, 10 µM", "value": 46}, {"measurement": "DNA Pol", "setting": "primary screen value; head prints only 'DNA Pol'; 90 min, 10 µM", "value": 46}]}]}
